Key:
[1] = system: HCAEC; experiment: Tube formation assay on HCAEC; assay type: cell-based, human; details: Jak3 20 nM-200 pM, 8 hours
Protocol: ECMATRIX (Chemicon, Temecula, Calif.) was thawed, diluted, and solidified in a 96 well plate according to the manufacturer's instructions. HCAEC were seeded onto the matrix at 2,000 cells/well in 150 μl of EGM-2 with 5% FBS without BulletKit growth supplements. A 20 nM-200 pM dose curve of recombinant human Jak3 was added to the cells and the plates were returned to 37° C., 5% CO2 for 8 hours. Each concentration was performed in triplicate and the experiment was repeated three times with similar results. Wells were evaluated under a Nikon Eclipse TS100 microscope at 4× magnification and pictures were taken with a Nikon CoolPix 995 digital camera. Angiogenesis was quantified by counting branch points in the resulting image.
The role of STAT3 activation in Jak3-mediated tube formation was evaluated using a small peptide inhibitor of phosphorylated STAT3 (P-STAT3). ECMATRIX was solidified in wells of a 96 well plate. HCAEC were seeded onto the matrix at 2,000 cells/well in 150 μl of EGM-2 with 5% FBS without additional BulletKit growth supplements. Wells were treated in triplicate with: PBS alone, PBS+100 μM P-STAT3 inhibitor, 20 nM Jak3, or 20 nM Jak3+100 μM P-STAT3 inhibitor. Wells were photographed at 8 hours and tube formation was quantified by counting branch points in the resulting image.

[2] = system: Human coronary artery endothelial cells (HCAEC); experiment: Hypoxia-induced endothelial cell apoptosis assay (caspase 3); assay type: cell-based; details: Jak3 20 nM-200 pM, 36 hours hypoxia
Protocol: Human coronary artery endothelial cells (HCAEC) were used for apoptosis assays because apoptosis could not be induced in the MEC cells. HCAECs were grown in 10-cm dishes (Becton Dickinson, Franklin Lakes, N.J.) with endothelial cell basal medium-2 (EGM-2) BulletKit media (Clonetics, San Diego, Calif.) until 80% confluent. Medium was then replaced with optimal medium according to different assays. The hypoxic condition was created by incubating HCAECs in EGM-2 media without BulletKit growth factors at 37° C. in a hypoxia chamber with an atmosphere of 5% CO2/95% N2. The oxygen level in the chamber was controlled to 1.0%. Apoptosis was determined by measuring the activity of cleaved caspase 3 by using a caspase-specific fluorogenic substrate according to the protocol for the Caspase 3 Assay Kit (Sigma). HCAECs were lysed after treatment with concentrations of SFRP2 (70 pM and 700 pM) for 36 h under hypoxia. […] The enzyme-catalyzed release of 7-amino-4-methyl coumarin (AMC) was measured by a fluorescence microplate reader.
HCAEC were seeded onto a 96 well plate at 2,000 cells/well in EGM-2 with BulletKit growth supplements. […] Apoptosis was determined by measuring the activity of cleaved caspase 3 by using a caspase-specific fluorogenic substrate according to the protocol for the Apo-ONE® Homogeneous Caspase-3/7 Assay (Promega, Madison, Wis.). […]

[3] = system: chick chorioallantoic membrane; experiment: Chick chorioallantoic membrane (CAM) assay; assay type: in vivo, chicken; details: 100 ng per disk, evaluated day 3 after disk placement
Protocol: On day 4, the eggs were cracked into sterile Petri dishes and incubated at 99° F. in 3% CO2, 65% humidity. For application of drug onto the CAM, Whatman grade 1 filter paper was cut into circles with a 6 mm diameter paper punch and autoclaved. To decrease inflammatory effects of the disk, the discs were soaked in 1 ml of 3.0 mg/ml cortisone acetate in absolute ETOH and air dried for 60 min in a laminar flow hood. On day 8, 5 disks per egg were placed on the outer third of the CAM, 2-3 mm from a vessel. Control PBS 7 μl was added to the discs for the control CAMs, and SFRP2 100 ng/7 μl PBS was added to the disks for the treated CAMs (n=5 control disks and 5 SFRP2-treated disks). The CAMs were evaluated under a stereomicroscope on day 3 after disk placement. Pictures were taken with a Wild M-4 70 Macrosystem, and angiogenesis was quantified using Metamorph Software with an angiogenesis module.
Fertilized chickens eggs (NC State University Chicken Research Faint) were incubated at 100.4° F. in an egg turner (Model#1588 Genesis Hova-Bator, GQF Mfg. Co., Inc.) for 3 days. […] CAMs were evaluated under a stereomicroscope on day 3 after disk placement. Pictures were taken with a Wild M-4 70 Macrosystem and angiogenesis was quantified using Metamorph Software with an angiogenesis module.

[4] = system: HCAEC; experiment: Endothelial cell proliferation assay (MTT); assay type: cell-based, human; details: Jak3, 48 hours
Protocol: HCAEC were seeded on a 96 well plate at a concentration of 2000 cells/well and allowed to proliferate for 24 hrs in EGM-2 with BulletKit growth supplements. The cells were then quiesced in EGM-2 with 0.1% FBS without BulletKit growth supplements for 18 hours. Media was replaced with fresh EGM-2 with BulletKit growth supplements and the cells were treated in triplicate with: PBS alone; recombinant murine VEGF (60 ng/mL); or Jak3 (at a concentration of 200 nM-200 pM). After 48 h, 10 μl of the colorimetric compound 3-(4,5-dimethylthiazol-2-yl)-2,5-diphenyl tetrazolium bromide (MTT) (5 mg/mL) was added to each well and allowed to incubate for 4 h at 37° C. All but 25 μl of media in each well was removed and 50 μl dimethyl sulfoxide (DMSO) was added. Following a 10 min incubation at 37° C., the A540 was measured using a microplate reader. A540 was converted to number of cells based on a standard curved created by seeding a 96-well plate with known concentrations of cells, as determined by hemocytometry, and measuring their A540 after 4 hrs incubation with MTT.

[5] = system: HCAEC; experiment: Scratch wound assay on HCAEC; assay type: cell-based, human; details: Jak3 20 nM-200 pM
Protocol: HCAEC were plated at 10,000 cells/well onto a 96 well plate and allowed to become confluent in EGM-2 with BulletKit growth supplements. The cells were quiesced in EGM-2 with 0.1% FBS without BulletKit growth supplements for 18 hours. The wound was formed using a 1 ml pipette tip. A 20 nM-200 pM dose curve of recombinant human Jak3 (Millipore, Temecula, Calif.) was added to the cells. Each concentration was performed in triplicate and the experiment was repeated three times with similar results. Migration distance was measured at 12 hours and then every 4 hours until wound closure in all wells. Data were recorded as percent of wound closed at each time point.

Substance: Jak3: recombinant human Jak3 (Millipore)
- endothelial tube formation (branch points) [1]: induced by Jak3 in a concentration-dependent manner
- hypoxia induced endothelial cell apoptosis (caspase 3 activity) [2]: protected against hypoxia induced endothelial cell apoptosis
- angiogenesis on the CAM (branch points, segments, tube area, tube length) [3]: induced angiogenesis on the CAM
- cell proliferation [4]: increased cell proliferation
- endothelial cell migration (percent of wound closed) [5]: increased endothelial cell migration

Reference: US9073982B2, “Targets for regulation of angiogenesis” (The University of North Carolina at Chapel Hill, priority 2008, dated 2015)
